Measurements as given in US9994587B2, “HIV protease inhibitors” (priority 2014, dated 2018).

Experiments:
[1] = biological target: T1, wildtype HIV-1 protease (Human immunodeficiency virus type 1 group M subtype B, UniProt P04585); assay: Assay for inhibition of microbial expressed HIV protease (Pepcleav); format: biochemical; settings: wild type HIV-1 protease 20 pM, peptide substrate 400 micromolar, pH 5.5; mean of at least two independent experiments
T1 construct: preincubated with the HIV-1 protease (wild type) enzyme in assay buffer; made in house; host or cells: Escherichia coli
How it was run: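 E. coli-expressed enzyme preincubated with inhibitor 30 min at room temperature in 50 mM sodium acetate pH 5.5, 100 mM NaCl, 0.1% BSA, then 400 micromolar peptide substrate added with 20 picomolar protease (final), 1 h at 30° C. Product quantified by LC-MS/MS peak area after formic acid/indinavir quench.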

[2] = tested on: HIV-1 (NL4-3 strain); assay: Viral Kinetics GFP Reporter (ViKinG) assay; format: cell-based; settings: Human immunodeficiency virus 1, NL43; 50% NHS; MT4-GFP cells infected with HIV-1 NL4-3; mean of at least two independent experiments
Text: Viral Kinetics GFP Reporter (ViKinG) Assay
The ViKinG assay is an in vitro kinetic assay that employs the MT4-gag-GFP reporter cell line (Wang et al., “Assessment of the susceptibility of mutant HIV-1 to antiviral agents.” J Virological Methods 165:230-37 (2010)) to quantify the number of new cells infected in each round of replication. The purpose of the ViKinG assay is to identify agents that inhibit HIV progression. Briefly, HIV infection results in tat transactivation of the stably expressed HIV LTR promoter to drive gagGFP expression. Thus, an increase in the number of GFP-MT4 cells results following HIV infection.
MT4-GFP cells (250,000 cells/ml) were bulk-infected with HIV-1 (NL4-3 strain) at low multiplicity of infection (MOI) in RPMI+10% FBS for 24 hours. Cells were then washed once in RPMI+10% FBS and resuspended RPMI+10% or 50% normal human serum (NHS). Test compounds were serial-diluted in DMSO on an ECHO® liquid handling platform (Labcyte Corp., Sunnyvale, Calif.), along with a triple drug control (integrase, protease and NNRTI compounds). The infected MT4-GFP cells were added to a 384-well poly-D-lysine coated black plate with clear bottom in which the diluted test compounds were placed. The cells were seeded at 8,000 cells per well and the final DMSO concentration was 0.4%. The infected cells (Green GFP cells) were quantified at both 24 and 48 hours post incubation using Acumen® eX3 (TTP Labtech Ltd., Hertfordshire, United Kingdom). Viral reproductive ratio (R0) was determined using the number of infected cells at 48 hours divided by the number of infected cells at 24 hours. Percent viral growth inhibition was calculated by [1−(R−Rtripledrug)/(RDMSO−Rtripledrug)]*100. Compound potency IP or IC50 was determined by a 4-parameter dose response curve analysis.

SMILES | IC50 [1] [nM] | IC50 [2] [nM]
CS(=O)(=O)N1CCC2(CC1)CNC[C@@H](CCc1c(F)cccc1NC(=O)[C@@H](N)[C@@H](c1ccc(Cl)cc1)c1cc(F)cc(F)c1)O2 [Example 93, (βS)-4-chloro-β-(3,5-difluorophenyl)-N-(3-fluoro-2-{2-[(2R)-9-(methylsulfonyl)-1-oxa-4,9-diazaspiro[5.5]undec-2-yl]ethyl}phenyl)-L-phenylalaninamide] | 11 | 46
N[C@H](C(=O)Nc1cccc(F)c1CC[C@@H]1CNC[C@@H](COC(=O)NCC(F)(F)F)O1)C(c1ccc(F)cc1)c1ccc(F)cc1 [Example 99, 4-fluoro-β-(4-fluorophenyl)-N-(3-fluoro-2-{2-[(2R,6S)-6-({[(2,2,2-trifluoroethyl)carbamoyl]oxy}methyl)morpholin-2-yl]ethyl}phenyl)-L-phenylalaninamide] | 15 | 59
COC(=O)N[C@H](C(=O)Nc1cncc(F)c1CC[C@@H]1CNCC2(CCOCC2)O1)[C@@H](c1ccc(Cl)cc1)C1CCOCC1 [Example 160, methyl[(1S,2R)-2-(4-chlorophenyl)-1-[(4-{2-[(2R)-1,9-dioxa-4-azaspiro[5.5]undec-2-yl]ethyl}-5-fluoropyridin-3-yl)carbamoyl]-2-(tetrahydro-2H-pyran-4-yl)ethyl]carbamate] | – | 350
N[C@H](C(=O)Nc1cccc(F)c1CC[C@@H]1CNCC2(CCOCC2)O1)[C@@H](c1ccc(Cl)cc1)C1CCOCC1 [Example 159, (βR)-4-chloro-N-(2-{2-[(2R)-1,9-dioxa-4-azaspiro[5.5]undec-2-yl]ethyl}-3-fluorophenyl)-β-(tetrahydro-2H-pyran-4-yl)-L-phenylalaninamide] | – | 490
COC(=O)N[C@H](C(=O)Nc1cccc(F)c1CC[C@@H]1CNCC2(CCN(C(C)=O)CC2)O1)[C@@H](c1ccc(Cl)cc1)c1cc(F)cc(F)c1 [Example 151, methyl{(1S)-2-[(2-{2-[(2R)-9-acetyl-1-oxa-4,9-diazaspiro[5.5]undec-2-yl]ethyl}-3-fluorophenyl)amino]-1-[(S)-(4-chlorophenyl)(3,5-difluorophenyl)methyl]-2-oxoethyl}carbamate] | – | 170
N[C@H](C(=O)Nc1cncc(F)c1CC[C@@H]1CNCC2(CCOCC2)O1)[C@@H](c1ccc(Cl)cc1)C1CCOCC1 [Example 158, (βR)-4-chloro-N-(4-{2-[(2R)-1,9-dioxa-4-azaspiro[5.5]undec-2-yl]ethyl}-5-fluoropyridin-3-yl)-β-(tetrahydro-2H-pyran-4-yl)-L-phenylalaninamide] | – | 390
N[C@H](C(=O)Nc1cncc(F)c1CC[C@@H]1CNCC2(CCCC2)O1)C(c1ccc(F)cc1)c1ccc(F)cc1 [Example 150, 4-fluoro-N-(5-fluoro-4-{2-[(7R)-6-oxa-9-azaspiro[4.5]dec-7-yl]ethyl}pyridin-3-yl)-β-(4-fluorophenyl)-L-phenylalaninamide] | – | 270
COC(=O)N[C@H](C(=O)Nc1cccc(F)c1CC[C@@H]1CNCC2(CCCC(=O)C2)O1)[C@@H](c1ccc(F)cc1)c1cc(F)cc(F)c1 (stereo partly drawn) [Example 92, Methyl ((1S,2S)-1-(3,5-difluorophenyl)-3-((3-fluoro-2-(2-((2R)-8-oxo-1-oxa-4-azaspiro[5.5]undecan-2-yl)ethyl)phenyl)amino)-1-(4-fluorophenyl)-3-oxopropan-2-yl)carbamate] | – | 35
N[C@H](C(=O)Nc1cccc(F)c1CC[C@@H]1CNC[C@@H](CSc2nnc(-c3ccncc3)o2)O1)C(c1ccc(F)cc1)c1ccc(F)cc1 [Example 91, 4-fluoro-β-(4-fluorophenyl)-N-(3-fluoro-2-{2-[(2R,6S)-6-{[(5-pyridin-4-yl-1,3,4-oxadiazol-2-yl)sulfanyl]methyl}morpholin-2-yl]ethyl}phenyl)-L-phenylalaninamide] | 0.25 | 20
COC(=O)N[C@H](C(=O)Nc1cccc(F)c1CC[C@@H]1CNCC2(CCN(S(C)(=O)=O)CC2)O1)[C@@H](c1ccc(Cl)cc1)c1cc(F)cc(F)c1 [Example 94, methyl {(1 S,2S)-2-(4-chlorophenyl)-2-(3,5-difluorophenyl)-1-[(3-fluoro-2-{2-[(2R)-9-(methylsulfonyl)-1-oxa-4,9-diazaspiro[5.5]undec-2-yl]ethyl}phenyl)carbamoyl]ethyl}carbamate] | 11 | 42
N[C@H](C(=O)Nc1cncc(F)c1CC[C@@H]1CNC[C@@H](CSc2nnc(-c3ccncc3)o2)O1)C(c1ccc(F)cc1)c1ccc(F)cc1 [Example 103, (S)-2-amino-N-(5-fluoro-4-(2-((2R,6S)-6-(((5-(pyridin-4-yl)-1,3,4-oxadiazol-2-yl)thio)methyl)morpholin-2-yl)ethyl)pyridin-3-yl)-3,3-bis(4-fluorophenyl)propanamide] | 0.49 | 37
N[C@H](C(=O)Nc1cccc(F)c1CC[C@@H]1CNCC2(CCOC2)O1)[C@@H](c1ccc(Cl)cc1)c1cc(F)cc(F)c1 (stereo partly drawn) [Example 162, (βS)-4-chloro-β-(3,5-difluorophenyl)-N-(2-{2-[(7R)-2,6-dioxa-9-azaspiro[4.5]dec-7-yl]ethyl}-3-fluorophenyl)-L-phenylalaninamide] | – | 180
COC(=O)N[C@H](C(=O)Nc1cccc(F)c1CC[C@@H]1CNCC2(CCOC2)O1)[C@@H](c1ccc(Cl)cc1)c1cc(F)cc(F)c1 (stereo partly drawn) [Example 163, methyl{(1S,2S)-2-(4-chlorophenyl)-2-(3,5-difluorophenyl)-1-[(2-{2-[(7R)-2,6-dioxa-9-azaspiro[4.5]dec-7-yl]ethyl}-3-fluorophenyl)carbamoyl]ethyl}carbamate] | – | 150
COC(=O)N[C@H](C(=O)Nc1cncc(F)c1CC[C@@H]1CNCC2(CCOCC2)O1)[C@@H](c1ccc(Cl)cc1)c1cc(F)cc(F)c1 [Example 98, methyl {(1S,2S)-2-(4-chlorophenyl)-2-(3,5-difluorophenyl)-1-[(4-{2-[(2R)-1,9-dioxa-4-azaspiro[5.5]undec-2-yl]ethyl}-5-fluoropyridin-3-yl)carbamoyl]ethyl}carbamate] | 29 | 88
COC(=O)N[C@H](C(=O)Nc1cccc(F)c1CC[C@@H]1CNCC2(CCOCC2)O1)[C@@H](c1ccc(Cl)cc1)c1cc(F)cc(F)c1 [Example 97, methyl {(1S,2S)-2-(4-chlorophenyl)-2-(3,5-difluorophenyl)-1-[(2-{2-[(2R)-1,9-dioxa-4-azaspiro[5.5]undec-2-yl]ethyl}-3-fluorophenyl)carbamoyl]ethyl}carbamate] | – | 55
CS(=O)(=O)N1CCC2(CC1)CNC[C@@H](CCc1c(F)cncc1NC(=O)[C@@H](N)[C@@H](c1ccc(Cl)cc1)c1cccc(OC(F)(F)F)c1)O2 [Example 154, (βS)-β-(4-chlorophenyl)-N-(5-fluoro-4-{2-[(2R)-9-(methylsulfonyl)-1-oxa-4,9-diazaspiro[5.5]undec-2-yl]ethyl}pyridin-3-yl)-3-(trifluoromethoxy)-L-phenylalaninamide] | – | 300
COC(=O)N[C@H](C(=O)Nc1cncc(F)c1CC[C@@H]1CNCC2(CCOCC2)O1)[C@@H](c1ccc(Cl)cc1)c1cccc(OC(F)(F)F)c1 [Example 157, methyl{(1S,2S)-2-(4-chlorophenyl)-1-[(4-{2-[(2R)-1,9-dioxa-4-azaspiro[5.5]undec-2-yl]ethyl}-5-fluoropyridin-3-yl)carbamoyl]-2-[3-(trifluoromethoxy)phenyl]ethyl}carbamate] | – | 210
COC(=O)N[C@H](C(=O)Nc1cncc(F)c1CC[C@@H]1CNCC2(CCCC2)O1)C(c1ccc(F)cc1)c1ccc(F)cc1 [Example 100, methyl {(1S)-1-[bis(4-fluorophenyl)methyl]-2-[(5-fluoro-4-{2-[(7R)-6-oxa-9-azaspiro[4.5]dec-7-yl]ethyl}pyridin-3-yl)amino]-2-oxoethyl}carbamate] | – | 71
